# Assay results: ChEMBL document CHEMBL2385069, “Thiourea derivatives incorporating a hippuric acid moiety: synthesis and evaluation of antibacterial and antifungal activities” (2013)
# Key:
# Type in all cases: functional
# [1] = test system: Klebsiella pneumoniae; experiment: Antibacterial activity against Klebsiella pneumoniae ATCC 13883 assessed as diameter of inhibition zone at 1 mg/ml after 24 hrs by agar well diffusion method; settings: ATCC 13883, 24 h, read-out: DIZ
# [2] = test system: Pseudomonas aeruginosa; experiment: Antibacterial activity against Pseudomonas aeruginosa ATCC 27953 assessed as diameter of inhibition zone at 1 mg/ml after 24 hrs by agar well diffusion method; settings: ATCC 27953, 24 h, read-out: DIZ
# [3] = test system: Saccharomyces cerevisiae; experiment: Antifungal activity against Saccharomyces cerevisiae assessed as diameter of inhibition zone at 1 mg/ml after 24 hrs by agar well diffusion method; settings: read-out: DIZ
# [4] = test system: Priestia megaterium; experiment: Antibacterial activity against Bacillus megaterium ATCC 9885 assessed as diameter of inhibition zone at 1 mg/ml after 24 hrs by agar well diffusion method; settings: ATCC 9885, 24 h, read-out: DIZ
# [5] = test system: Staphylococcus aureus; experiment: Antibacterial activity against Staphylococcus aureus ATCC 29213 assessed as diameter of inhibition zone at 1 mg/ml after 24 hrs by agar well diffusion method; settings: ATCC 29213, 24 h, read-out: DIZ
# [6] = test system: Candida albicans; experiment: Antifungal activity against Candida albicans NRRLY-477 assessed as diameter of inhibition zone at 1 mg/ml after 24 hrs by agar well diffusion method; settings: NRRLY-477, 24 h, read-out: DIZ
# [7] = test system: Micrococcus luteus; experiment: Antibacterial activity against Sarcina lutea assessed as diameter of inhibition zone at 1 mg/ml after 24 hrs by agar well diffusion method; settings: read-out: DIZ
# [8] = test system: Escherichia coli; experiment: Antibacterial activity against Escherichia coli ATCC 25922 assessed as diameter of inhibition zone at 1 mg/ml after 24 hrs by agar well diffusion method; settings: ATCC 25922, 24 h, read-out: DIZ
# [9] = test system: Proteus vulgaris; experiment: Antibacterial activity against Proteus vulgaris assessed as diameter of inhibition zone at 1 mg/ml after 24 hrs by agar well diffusion method; settings: read-out: DIZ
# [10] = test system: Bacillus subtilis; experiment: Antibacterial activity against Bacillus subtilis ATCC 6633 assessed as diameter of inhibition zone at 1 mg/ml after 24 hrs by agar well diffusion method; settings: ATCC 6633, 24 h, read-out: DIZ
# [11] = test system: Pseudomonas aeruginosa; experiment: Antibacterial activity against Pseudomonas aeruginosa ATCC 27953 after 24 hrs by two fold serial dilution technique; settings: ATCC 27953, 24 h
# [12] = test system: Priestia megaterium; experiment: Antibacterial activity against Bacillus megaterium ATCC 9885 after 24 hrs by two fold serial dilution technique; settings: ATCC 9885, 24 h
# [13] = test system: Micrococcus luteus; experiment: Antibacterial activity against Sarcina lutea after 24 hrs by two fold serial dilution technique
# [14] = test system: Bacillus subtilis; experiment: Antibacterial activity against Bacillus subtilis ATCC 6633 after 24 hrs by two fold serial dilution technique; settings: ATCC 6633, 24 h
# [15] = test system: Staphylococcus aureus; experiment: Antibacterial activity against Staphylococcus aureus ATCC 29213 after 24 hrs by two fold serial dilution technique; settings: ATCC 29213, 24 h
# [16] = test system: Bacillus subtilis; experiment: Ratio of Ciprofloxacin MIC to compound MIC for Bacillus subtilis ATCC 6633
# [17] = test system: Candida albicans; experiment: Antifungal activity against Candida albicans NRRLY-477 after 24 hrs by two fold serial dilution technique; settings: NRRLY-477, 24 h
# [18] = test system: Proteus vulgaris; experiment: Antibacterial activity against Proteus vulgaris after 24 hrs by two fold serial dilution technique
# [19] = test system: Candida albicans; experiment: Ratio of ketoconazole MIC to compound MIC for Candida albicans NRRLY-477
# [20] = test system: Escherichia coli; experiment: Antibacterial activity against Escherichia coli ATCC 25922 after 24 hrs by two fold serial dilution technique; settings: ATCC 25922, 24 h
# [21] = test system: Saccharomyces cerevisiae; experiment: Antifungal activity against Saccharomyces cerevisiae after 24 hrs by two fold serial dilution technique
# [22] = test system: Klebsiella pneumoniae; experiment: Antibacterial activity against Klebsiella pneumoniae ATCC 13883 after 24 hrs by two fold serial dilution technique; settings: ATCC 13883, 24 h
# [23] = test system: Pseudomonas aeruginosa; experiment: Ratio of Ciprofloxacin MIC to compound MIC for Pseudomonas aeruginosa ATCC 27953
# [24] = test system: Staphylococcus aureus; experiment: Ratio of Ciprofloxacin MIC to compound MIC for Staphylococcus aureus ATCC 29213
MIC [11] [µg/mL],MIC [12] [µg/mL],MIC [13] [µg/mL],MIC [14] [µg/mL],MIC [15] [µg/mL],MIC [17] [µg/mL],MIC [18] [µg/mL],MIC [20] [µg/mL],MIC [21] [µg/mL],MIC [22] [µg/mL],SMILES,zone of inhibition at 1000 µg/mL [1] [mm],zone of inhibition at 1000 µg/mL [2] [mm],zone of inhibition at 1000 µg/mL [3] [mm],zone of inhibition at 1000 µg/mL [4] [mm],zone of inhibition at 1000 µg/mL [5] [mm],zone of inhibition at 1000 µg/mL [6] [mm],zone of inhibition at 1000 µg/mL [7] [mm],zone of inhibition at 1000 µg/mL [8] [mm],zone of inhibition at 1000 µg/mL [9] [mm],zone of inhibition at 1000 µg/mL [10] [mm],other results
12.5,3.12,12.5,3.12,6.25,3.12,6.25,6.25,6.25,6.25,O=C(O)CNC(=O)c1ccc(NC(=S)Nc2cccc(Br)c2)cc1,30,22,28,32,31,30,20,27,24,30,Ratio [16]: 2; Ratio [19]: 2
12.5,12.5,12.5,12.5,50,12.5,12.5,12.5,25,12.5,O=C(O)CNC(=O)c1ccc(NC(=S)Nc2cccc(F)c2)cc1,23,21,17,27,20,22,20,20,25,18,
3.12,12.5,12.5,12.5,3.12,12.5,12.5,6.25,3.12,12.5,O=C(O)CNC(=O)c1ccc(NC(=S)Nc2ccc(S(=O)(=O)Nc3ncccn3)cc2)cc1,17,34,30,27,32,25,25,32,21,26,Ratio [23]: 4; Ratio [24]: 2
12.5,12.5,25,50,50,12.5,25,12.5,50,12.5,O=C(O)CNC(=O)c1ccc(NC(=S)Nc2ccc(C(=O)NCC(=O)O)cc2)cc1,23,22,18,17,22,19,15,22,21,18,
12.5,6.25,12.5,3.12,6.25,3.12,6.25,6.25,12.5,12.5,Nc1n[nH]c(NC(=S)Nc2ccc(C(=O)NCC(=O)O)cc2)c1/N=N/c1ccc(Cl)cc1,22,28,25,27,28,30,30,28,28,32,Ratio [16]: 2; Ratio [19]: 2
12.5,3.12,12.5,3.12,6.25,3.12,12.5,6.25,12.5,12.5,O=C(O)CNC(=O)c1ccc(NC(=S)NNS(=O)(=O)c2ccccc2)cc1,25,23,24,31,32,32,20,29,20,30,Ratio [16]: 2; Ratio [19]: 2

# More lines, now with the values behind:
SMILES,MIC [11] [µg/mL],MIC [12] [µg/mL],MIC [13] [µg/mL],MIC [14] [µg/mL],MIC [15] [µg/mL],MIC [17] [µg/mL],MIC [18] [µg/mL],MIC [20] [µg/mL],MIC [21] [µg/mL],MIC [22] [µg/mL],zone of inhibition at 1000 µg/mL [1] [mm],zone of inhibition at 1000 µg/mL [2] [mm],zone of inhibition at 1000 µg/mL [3] [mm],zone of inhibition at 1000 µg/mL [4] [mm],zone of inhibition at 1000 µg/mL [5] [mm],zone of inhibition at 1000 µg/mL [6] [mm],zone of inhibition at 1000 µg/mL [7] [mm],zone of inhibition at 1000 µg/mL [8] [mm],zone of inhibition at 1000 µg/mL [9] [mm],zone of inhibition at 1000 µg/mL [10] [mm],other results
CCCCCCNC(=S)Nc1ccc(C(=O)NCC(=O)O)cc1,,,,,,,,,,,12,0,9,23,0,0,24,11,0,9,
O=C(O)CNC(=O)c1ccc(NC(=S)Nc2ccccc2)cc1,,,,,,,,,,,0,12,0,13,0,0,0,19,0,17,
Cc1ccc(NC(=S)Nc2ccc(C(=O)NCC(=O)O)cc2)cc1,,,,,,,,,,,0,0,0,19,0,18,25,9,20,0,
O=C(O)CNC(=O)c1ccc(NC(=S)Nc2ccc(F)cc2)cc1,,,,,,,,,,,20,22,13,15,20,9,20,22,20,0,
O=C(O)CNC(=O)c1ccc(NC(=S)Nc2c3ccccc3nc3ccccc23)cc1,,,,,,,,,,,23,15,0,18,20,11,0,15,20,12,
O=C(O)CNC(=O)c1ccc(NC(=S)Nc2ccccc2C(=O)Nc2cccc(C(F)(F)F)c2)cc1,,,,,,,,,,,0,0,15,14,0,0,0,0,10,16,
O=C(O)CNC(=O)c1ccc(NC(=S)Nc2ccc(NC(=S)Nc3ccc(C(=O)NCC(=O)O)cc3)cc2)cc1,12.5,12.5,50,12.5,50,12.5,25,25,25,12.5,16,22,26,24,20,26,10,24,18,31,
CCCCNC(=S)Nc1ccc(C(=O)NCC(=O)O)cc1,,,,,,,,,,,20,22,18,16,22,10,9,22,21,13,
